From patent US20080269237A1, “CARBAMIC ACID COMPOUNDS COMPRISING A PIPERAZINE LINKAGE AS HDAC INHIBITORS” (TOPOTARGET UK LIMITED, priority 2002, published 2008)

How the values were obtained:
mouse HDAC2 = mouse HDAC2 (Mus musculus, UniProt P70288); assay: biochemical
Description: Briefly, this assay relies on the release of radioactive acetate from a radioactively labelled histone fragment by the action of HDAC enzyme. Test compounds, which inhibit HDAC, reduce the yield of radioactive acetate. Signal (e.g., scintillation counts) measured in the presence and absence of a test compound provide an indication of that compound's ability to inhibit HDAC activity. Decreased activity indicates increased inhibition by the test compound. […]
After purification of the radiolabelled histone fragment, it was incubated with a source of HDAC (e.g., an extract of HeLa cells (a rich source of HDAC), recombinantly produced HDAC1 or HDAC2) and any released acetate was extracted into an organic phase and quantitatively determined using scintillation counting. By including a test compound with the source of HDAC, that compound's ability to inhibit the HDAC was determined. […]
A source of HDAC (e.g., 2 μL of crude HeLa extract, 5 μL of HDAC1 or HDAC2; in elution buffer, as above) was incubated with 3 μL of radioactively labelled peptide along with appropriate dilutions of candidate compounds (1.5 μL) in a total volume of 150 μL of buffer (20 mM Tris pH 7.4, 10% glycerol). […] Radioactivity was measured using a Tri-Carb 2100TR Liquid Scintillation Analyzer (Packard). […]

HeLa cells = assay: Secondary assay: cell proliferation inhibition WST-1, HeLa; assay type: cell-based; conditions: Homo sapiens, 48 h, read-out: Cell Proliferation Inhibition WST-1 (IC50 unless otherwise specified) HeLa
Description: (§1) Compounds with HDAC inhibition activity, as determined using the primary assay, were subsequently evaluated using secondary cell-based assays. The following cell lines were used:
(§2) HeLa—Human cervical adenocarcinoma cell line (ATCC ref. No. CCL-2). K11—HPV E7 transformed human keratinocyte line provided by Pidder Jansen-Duerr, Institut für Biomedizinische Altemsforschung, Innsbruck, Austria. NHEK-Ad—Primary human adult keratinocyte line (Cambrex Corp., East Rutherford, N.J., USA).
(§3) Cells were plated in 96-well plates at 3-10×10^3 cells/well in 100 μL of culture medium. The following day, different concentrations of candidate compounds were added and the cells incubated at 37° C. for 48 h. Subsequently, 10 μL/well of WST-1 reagent was added and the cells reincubated for 1 hour. After the incubation time, absorbance was measured.
(§4) WST-1 is a tetrazolium salt which is cleaved to formazan dye by cellular enzymes. An expansion in the number of viable cells results in an increase in the overall activity of mitochondrial dehydrogenases in the sample. This augmentation in the enzyme activity leads to an increase in the amount of formazan dye formed, which directly correlates to the number of metabolically active cells in the culture. The formazan dye produced is quantified by a scanning multiwell spectrophotometer by measuring the absorbance of the dye solution at 450 nm wavelength (reference wavelength 690 nm).
(§5) Percent activity (% activity) in reducing the number of viable cells was calculated for each test compound as:
(§6) % activity={(S^C−B)/(S^o−B)}×100
(§7) IC50 values were calculated using the software package Prism 3.0 (GraphPad Software Inc., San Diego, Calif.), setting top value at 100 and bottom value at 0.

[1] = system: K11 (HPV E7 transformed human keratinocyte line); assay: Secondary assay: cell proliferation inhibition WST-1, K11; assay type: cell-based; conditions: Homo sapiens, Keratinocyte, 48 h, read-out: Cell Proliferation Inhibition WST-1 (IC50 unless otherwise specified) K11
Description: as §1, §2, §3, §4, §5, §6, §7

[2] = system: NHEK-Ad (primary human adult keratinocyte line); assay: Secondary assay: cell proliferation inhibition WST-1, NHEK-Ad; assay type: cell-based; conditions: Homo sapiens, Keratinocyte, 48 h, read-out: Cell Proliferation Inhibition WST-1 (IC50 unless otherwise specified) NHEK-AD
Description: as §1, §2, §3
WST-1 is a tetrazolium salt which is cleaved to formazan dye by cellular enzymes. […] The formazan dye produced is quantified by a scanning multiwell spectrophotometer by measuring the absorbance of the dye solution at 450 nm wavelength (reference wavelength 690 nm).
Percent activity (% activity) in reducing the number of viable cells was calculated for each test compound as: […]
as §7

[3] = system: JURKAT (human T-cell line); assay: Secondary assay: cell proliferation inhibition WST-1, Jurkat; assay type: cell-based; conditions: Homo sapiens, 48 h, read-out: Cell Proliferation Inhibition WST-1 (IC50 unless otherwise specified) Jurkat

mouse HDAC2, sequence (P70288 whole entry, the tested form may be a part): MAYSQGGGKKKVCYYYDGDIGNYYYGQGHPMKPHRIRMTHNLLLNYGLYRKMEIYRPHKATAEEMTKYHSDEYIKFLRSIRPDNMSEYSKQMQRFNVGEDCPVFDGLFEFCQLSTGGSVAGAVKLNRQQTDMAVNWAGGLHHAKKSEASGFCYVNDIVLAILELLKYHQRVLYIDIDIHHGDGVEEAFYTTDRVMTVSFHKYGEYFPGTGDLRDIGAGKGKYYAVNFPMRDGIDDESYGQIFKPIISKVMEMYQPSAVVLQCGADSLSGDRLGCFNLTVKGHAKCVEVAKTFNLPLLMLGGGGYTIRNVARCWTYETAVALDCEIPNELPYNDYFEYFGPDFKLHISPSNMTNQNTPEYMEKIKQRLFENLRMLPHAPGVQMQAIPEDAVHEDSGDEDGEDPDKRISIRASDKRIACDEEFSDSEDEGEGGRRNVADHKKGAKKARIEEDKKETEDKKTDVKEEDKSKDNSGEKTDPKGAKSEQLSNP

**Q.** What does the source list for `CC(/C=C/C(=O)NO)=C\[C@@H](C)C(=O)c1ccc(N(C)C)cc1` [TSA, Trichostatin A, reference compound]?
**A.** IC50 (mouse HDAC2): 17 nM; IC50 (HeLa cells): 350 nM; IC50 [1]: 380 nM; IC50 [2]: 200 nM; IC50 [3]: 42 nM
